Data published in patent US20220323406A1, “METHODS AND COMPOSITIONS FOR DIFFERENTIATING STEM CELLS” (Massachusetts Institute of Technology, priority 2019, published 2022).

Assays:
[1] = tested on: ENR+CD organoids; test: Primary screen: ATP (CellTiter-Glo 3D, CTG) cell number/viability, 2.5-D 384-well ENR+CD organoids; details: primary screen;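 also: compounds given at plating and again on day 3 over a 6-day differentiation from ENR+CV stem-cell-enriched precursors, ATP measured on day 6, plate median as control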
[2] = tested on: ENR+CD organoids (ISC to Paneth cell differentiation); test: Primary screen: basal (non-stimulated) lysozyme secretion LYZ.NS, 2.5-D 384-well ENR+CD organoid differentiation; assay type: cell-based, mouse
Text: (§1) High-throughput screening.

[3] = tested on: ENR+CD organoids (ISC to Paneth cell differentiation); test: Primary screen: CCh-stimulated lysozyme secretion LYZ.S, 2.5-D 384-well ENR+CD organoid differentiation; assay type: cell-based, mouse; details: primary screen
Text: as §1

[4] = dose 0.08 uM, FC relative to plate median
[5] = dose 0.40 uM, FC relative to plate median
[6] = dose 2.00 uM, FC relative to plate median
[7] = dose 10.00 uM, FC relative to plate median
[8] = primary screen, dose 0.08 uM, FC relative to plate median
[9] = primary screen, dose 0.08 uM, standard z score
[10] = primary screen, dose 0.40 uM, FC relative to plate median
[11] = primary screen, dose 0.40 uM, standard z score
[12] = primary screen, dose 2.00 uM, FC relative to plate median
[13] = primary screen, dose 2.00 uM, standard z score
[14] = primary screen, dose 10.00 uM, FC relative to plate median
[15] = primary screen, dose 10.00 uM, standard z score
[16] = dose 0.08 uM, FC vs plate median
[17] = dose 0.40 uM, FC vs plate median
[18] = dose 2.00 uM, FC vs plate median
[19] = dose 10.00 uM, FC vs plate median

SMILES | Dose.FC.CTG ([1]; dose 0.08 uM) [log2 fold change] | Dose.FC.CTG ([1]; dose 0.40 uM) [log2 fold change] | Dose.FC.CTG ([1]; dose 2.00 uM) [log2 fold change] | Dose.FC.CTG ([1]; dose 10.00 uM) [log2 fold change] | Dose.FC.LYZ.NS ([2]; primary screen, dose 0.08 uM) [log2 fold change] | Dose.FC.LYZ.NS ([2]; primary screen, dose 0.40 uM) [log2 fold change] | Dose.FC.LYZ.NS ([2]; primary screen, dose 2.00 uM) [log2 fold change] | Dose.FC.LYZ.NS ([2]; primary screen, dose 10.00 uM) [log2 fold change] | Dose.FC.LYZ.S ([3]; dose 0.08 uM) [log2 fold change] | Dose.FC.LYZ.S ([3]; dose 0.40 uM) [log2 fold change] | Dose.FC.LYZ.S ([3]; dose 2.00 uM) [log2 fold change] | Dose.FC.LYZ.S ([3]; dose 10.00 uM) [log2 fold change] | Z.CTG (standard z score) ([1]; dose 0.08 uM) | Z.CTG (standard z score) ([1]; dose 0.40 uM) | Z.CTG (standard z score) ([1]; dose 2.00 uM) | Z.CTG (standard z score) ([1]; dose 10.00 uM) | Z.LYZ.NS (standard z score) ([2]; primary screen, dose 0.08 uM) | Z.LYZ.NS (standard z score) ([2]; primary screen, dose 0.40 uM) | Z.LYZ.NS (standard z score) ([2]; primary screen, dose 2.00 uM) | Z.LYZ.NS (standard z score) ([2]; primary screen, dose 10.00 uM) | other results
CCOc1nc2cccc(C(=O)O)c2n1Cc1ccc(-c2ccccc2-c2nnn[nH]2)cc1 [Candesartan] | −0.003 | −0.125 | −0.198 | −0.253 | 0.013 | −0.015 | 0.007 | −0.051 | −0.015 | −0.032 | −0.092 | −0.075 | – | – | – | – | – | – | – | – | Z.LYZ.NS ([2]; primary screen, standard z score, dose 0.08 uM): 0.113; Z.LYZ.NS ([2]; primary screen, standard z score, dose 0.40 uM): −0.128; Z.LYZ.NS ([2]; primary screen, standard z score, dose 2.00 uM): 0.065; Z.LYZ.NS ([2]; primary screen, standard z score, dose 10.00 uM): −0.442
C[C@@H]1CCN(C(=O)CC#N)C[C@@H]1N(C)c1ncnc2[nH]ccc12 [Tofacitinib (CP-690550, Tasocitinib)] | 0.130 | 0.249 | 0.117 | 0.236 | −0.017 | −0.015 | −0.007 | −0.004 | 0.022 | 0.010 | 0.025 | 0.010 | 0.312 | 0.595 | 0.278 | 0.563 | −0.146 | −0.132 | −0.061 | −0.036 | –
O=C(NC[C@H]1CN(c2ccc(N3CCOCC3=O)cc2)C(=O)O1)c1ccc(Cl)s1 [Rivaroxaban] | – | – | – | – | – | – | – | – | – | – | – | – | – | – | – | – | – | – | – | – | Dose.FC.CTG [1, 4]: 0.021 log2 fold change; Dose.FC.CTG [1, 5]: 0.195 log2 fold change; Dose.FC.CTG [1, 6]: 0.052 log2 fold change; Dose.FC.CTG [1, 7]: 0.044 log2 fold change; Dose.FC.LYZ.NS [2, 8]: 0.108 log2 fold change; Z.LYZ.NS [2, 9]: 0.941; Dose.FC.LYZ.NS [2, 10]: −0.029 log2 fold change; Z.LYZ.NS [2, 11]: −0.248; Dose.FC.LYZ.NS [2, 12]: 0.153 log2 fold change; Z.LYZ.NS [2, 13]: 1.336; Dose.FC.LYZ.NS [2, 14]: −0.045 log2 fold change; Z.LYZ.NS [2, 15]: −0.390; Dose.FC.LYZ.S [3, 4]: 0.136 log2 fold change; Dose.FC.LYZ.S [3, 5]: −0.027 log2 fold change; Dose.FC.LYZ.S [3, 6]: 0.063 log2 fold change; Dose.FC.LYZ.S [3, 7]: −0.048 log2 fold change
CNC(=C[N+](=O)[O-])NCCSCc1ccc(CN(C)C)o1 [Ranitidine] | – | – | – | – | – | – | – | – | – | – | – | – | – | – | – | – | – | – | – | – | Dose.FC.CTG [1, 4]: −0.051 log2 fold change; Dose.FC.CTG [1, 5]: 0.155 log2 fold change; Dose.FC.CTG [1, 6]: −0.069 log2 fold change; Dose.FC.CTG [1, 7]: −0.262 log2 fold change; Dose.FC.LYZ.NS [2, 8]: −0.027 log2 fold change; Z.LYZ.NS [2, 9]: −0.234; Dose.FC.LYZ.NS [2, 10]: 0.011 log2 fold change; Z.LYZ.NS [2, 11]: 0.095; Dose.FC.LYZ.NS [2, 12]: −0.045 log2 fold change; Z.LYZ.NS [2, 13]: −0.389; Dose.FC.LYZ.NS [2, 14]: −0.046 log2 fold change; Z.LYZ.NS [2, 15]: −0.401; Dose.FC.LYZ.S [3, 4]: −0.020 log2 fold change; Dose.FC.LYZ.S [3, 5]: 0.071 log2 fold change; Dose.FC.LYZ.S [3, 6]: −0.040 log2 fold change; Dose.FC.LYZ.S [3, 7]: −0.043 log2 fold change
Nc1nc(N)c2nc(-c3cccc(O)c3)c(-c3cccc(O)c3)nc2n1 [TG100-115] | −0.256 | 0.066 | −0.013 | −0.116 | 0.208 | −0.026 | 0.003 | −0.026 | 0.073 | 0.032 | −0.019 | −0.100 | −0.611 | 0.158 | −0.031 | −0.277 | 1.812 | −0.223 | 0.025 | −0.223 | –
COc1ccc2cc([C@H](C)C(=O)O)ccc2c1 [Naproxen] | – | – | – | – | – | – | – | – | – | – | – | – | – | – | – | – | – | – | – | – | Dose.FC.CTG [1, 16]: −0.098 log2 fold change; Dose.FC.CTG [1, 17]: −0.068 log2 fold change; Dose.FC.CTG [1, 18]: −0.588 log2 fold change; Dose.FC.CTG [1, 19]: −1.282 log2 fold change; Z.LYZ.NS [2, 9]: 1.226; Z.LYZ.NS [2, 11]: 0.930; Z.LYZ.NS [2, 13]: −0.698; Z.LYZ.NS [2, 15]: −1.064; Dose.FC.LYZ.NS ([2]; primary screen; dose 0.08 uM; FC vs plate median): 0.141 log2 fold change; Dose.FC.LYZ.NS ([2]; primary screen; dose 0.40 uM; FC vs plate median): 0.107 log2 fold change; Dose.FC.LYZ.NS ([2]; primary screen; dose 2.00 uM; FC vs plate median): −0.080 log2 fold change; Dose.FC.LYZ.NS ([2]; primary screen; dose 10.00 uM; FC vs plate median): −0.122 log2 fold change; Dose.FC.LYZ.S [3, 16]: 0.067 log2 fold change; Dose.FC.LYZ.S [3, 17]: 0.057 log2 fold change; Dose.FC.LYZ.S [3, 18]: −0.215 log2 fold change; Dose.FC.LYZ.S [3, 19]: −0.215 log2 fold change
CCOC(=O)C1=C(COCCN)NC(C)=C(C(=O)OC)C1c1ccccc1Cl (centres unmarked) [Amlodipine] | −0.351 | −0.363 | −0.372 | −0.421 | 0.026 | 0.024 | −0.065 | −0.135 | −0.042 | −0.015 | −0.122 | −0.155 | – | – | – | – | 0.228 | 0.210 | −0.568 | −1.172 | –
CCNC(=O)c1noc(-c2cc(C(C)C)c(O)cc2O)c1-c1ccc(CN2CCOCC2)cc1 [AUY922 (NVP-AUY922)] | −1.185 | −1.343 | −1.137 | −1.270 | −0.144 | −0.154 | −0.138 | −0.153 | −0.209 | −0.184 | −0.216 | −0.214 | −2.830 | −3.208 | −2.715 | −3.032 | −1.251 | −1.343 | −1.200 | −1.330 | –
